Test results as given in US20240391885A1, “FORMS OF LINERIXIBAT” (GLAXOSMITHKLINE INTELLECTUAL PROPERTY (NO. 2) LIMITED, priority 2020, published 2024).
Values after ≈ are worked out from the molar mass of the structure shown.

How the values were obtained:
Format in all cases: physicochemical
[1] = Miniaturised shake flask solubility in Britton-Robinson buffers and biorelevant media (Experiment 8c); conditions: 37° C., 1, 4 and 24 hours; FIG. 25
Procedure: Solubility of Form I and Form III was also measured in Britton-Robinson buffers (pH 2-8), determined and compared using a standardised miniaturised shake flask method via an automated platform using a development HPLC method for quantification post centrifugation and filtration. Samples were run at 37° C. and performed as 2 replicate preparations for each pH condition and 4 replicate preparations for each biorelevant media condition at 1, 4 and 24 hours.

[2] = Conversion of Form I to Form III under mechanical stress / tablet compression (13C SSNMR, XRPD); conditions: one manufacturing batch of Form I after the final (agitated) drying step; qualitative assessment by 13C SSNMR and XRPD
Excerpt: Upon investigation, this occurrence was attributed to a combination of a relatively large batch size in a smaller filter drier (agitated drying stage) resulting in the wet material being subjected to greater shear forces during agitation, causing some conversion of Form I to Form III. Conversion of Form I to Form III was also observed during tablet compression process. […] During formulation development, samples of the linerixibat compression blend were compacted in a device to mimic the full-scale tableting process. X-ray powder diffractograms (XRPD) were obtained on these “compacts.” As the compression force was increased, the XRPD pattern changed to give loss of intensity of some peaks and formation of other peaks. This indicated the presence of another solid state form, which was subsequently confirmed as Form III. […] The intensities of Form I and Form III peaks in the ^13C SSNMR spectrum qualitatively indicate similar populations of the two polymorphic forms in the sample of mixture. The ^13C SSNMR data were acquired using the same apparatus and conditions as Example 1e.
^13C SSNMR data for linerixibat tablets, 90 mg of Form I compressed with different forces to achieve three different tensile strengths 1.6 MPa, 2.4 MPa and 3.2 MPa, were collected. The ^13C SSNMR data were acquired using the same apparatus and conditions as Example 1e. […]

[3] = Solubility of linerixibat drug substance over pH 1.2-6.8 at 37±1° C. (Experiment 8a); conditions: for solubility at 1 h / solubility at 4 h / solubility at 24 h: 37 °C, thermodynamic from solid; for solubility at 1 h: 1-hr timepoint; for solubility at 4 h: 4-hr timepoint; for solubility at 24 h: 24-hr timepoint
Procedure: The solubility of linerixibat drug substance, in respect of Form I and Form III, was determined over the pH range of 1.2-6.8 at 37±1° C. Eight pH values within this range, including buffers at pH 1.2, 4.5 and 6.8 were evaluated. The therapeutic dose for linerixibat is 40 mg.
• SGF=simulated gastric fluid • BR=Britton Robinson

[4] = Solubility of drug substance samples in biorelevant media and sodium acetate buffer (Experiment 8b); conditions: for solubility at 1 h / solubility at 4 h / solubility at 24 h: thermodynamic from solid
Excerpt: Solubility data was obtained for drug substance samples of linerixibat Form I, linerixibat Form III, and additionally for a sample of Form I compressed to 100 MPa which therefore contained an amount of Form III, in order to replicate typical forces encountered during tablet manufacture.
The media used for the drug substance samples were biorelevant media likely to be experienced in the stomach and the intestine, namely Simulated Gastric Fluid (SGF) over an increasing pH range (1.6, 2.0 and 4.0) and Fasted State Simulated Intestinal Fluid (FaSSIF) at a pH of 6.5. Solubility data was also obtained in 50 mM sodium acetate buffer pH 4.5.

[5] = Polymorph screen, relative stability of forms; conditions: relative to the other forms identified from the form screen
Procedure: Form I of linerixibat, a non-solvated crystalline form that melts with decomposition at onset temperature about 206° C. and peak temperature about 209° C., was identified as the predominant form of linerixibat from a polymorph screen study. Amorphous linerixibat and Form I were used as input material for polymorph screen experiments. […] Form I was obtained from a variety of screening samples, and the solvents used include water, methanol, ethanol, acetone, acetonitrile and ethyl acetate.

[6] = Britton Robinson buffer, pH 3, aqueous buffer, nominal pH 3.0, BR buffer
[7] = Britton Robinson buffer, pH 3.5, aqueous buffer, nominal pH 3.5, BR buffer
[8] = Britton Robinson buffer, pH 3.8, aqueous buffer, nominal pH 3.8, BR buffer
[9] = Britton Robinson buffer, pH 4, aqueous buffer, nominal pH 4.0, BR buffer
[10] = Britton Robinson buffer, pH 5, aqueous buffer, nominal pH 5.0, BR buffer
[11] = acetate buffer, pH 4.5, aqueous buffer, nominal pH 4.5, Acetate buffer
[12] = phosphate buffer, pH 6.8, aqueous buffer, nominal pH 6.8, Phosphate buffer
[13] = simulated gastric fluid (SGF), pH 1.2, simulated gastric fluid, nominal pH 1.2, SGF

## CCCC[C@]1(CC)CS(=O)(=O)c2cc(CNC(CC(=O)O)CC(=O)O)c(OC)cc2[C@@H](c2ccccc2)N1 [Form I]
[1]
  solubility comparison in biorelevant media: very similar
[2]
  Form III content: ≤ 10 % w/w
[3]; [6]
  solubility at 1 h: 178 µg/mL (≈ 326 µM)
  solubility at 4 h: 198 µg/mL (≈ 362 µM)
  solubility at 24 h: 232 µg/mL (≈ 424 µM)
[3]; [7]
  solubility at 1 h: 99 µg/mL (≈ 181 µM)
  solubility at 4 h: 110 µg/mL (≈ 201 µM)
  solubility at 24 h: 128 µg/mL (≈ 234 µM)
[3]; [8]
  solubility at 1 h: 104 µg/mL (≈ 190 µM)
  solubility at 4 h: 113 µg/mL (≈ 207 µM)
  solubility at 24 h: 131 µg/mL (≈ 240 µM)
[3]; [9]
  solubility at 1 h: 118 µg/mL (≈ 216 µM)
  solubility at 4 h: 125 µg/mL (≈ 229 µM)
  solubility at 24 h: 146 µg/mL (≈ 267 µM)
[3]; [10]
  solubility at 1 h: 393 µg/mL (≈ 719 µM)
  solubility at 4 h: 491 µg/mL (≈ 898 µM)
  solubility at 24 h: 650 µg/mL (≈ 1190 µM)
[3]; [11]
  solubility at 1 h: 190 µg/mL (≈ 348 µM)
  solubility at 4 h: 214 µg/mL (≈ 391 µM)
  solubility at 24 h: 293 µg/mL (≈ 536 µM)
[3]; all pHs in the physiological range except close to the solubility minimum (between pH 3.2 and pH 4.2), high solubility = above 0.16 mg/mL (40 mg in 250 mL)
  solubility classification: highly soluble
[3]; pH 1.2-6.8, 37±1° C.
  difference in solubility between Form I and Form III: no significant difference
[3]; [12]
  solubility at 1 h: > 1000 µg/mL
  solubility at 4 h: > 1000 µg/mL
  solubility at 24 h: > 1000 µg/mL
[3]; [13]
  solubility at 1 h: > 1000 µg/mL
  solubility at 4 h: > 1000 µg/mL
  solubility at 24 h: > 1000 µg/mL
[4]; 50 mM sodium acetate buffer, pH 4.5, aqueous buffer, 50 mM Sodium Acetate Buffer pH 4.5, 1 Hour
  solubility at 1 h: 270 µg/mL (≈ 494 µM)
[4]; 50 mM sodium acetate buffer, pH 4.5, aqueous buffer, 50 mM Sodium Acetate Buffer pH 4.5, 4 Hours
  solubility at 4 h: 280 µg/mL (≈ 512 µM)
[4]; 50 mM sodium acetate buffer, pH 4.5, aqueous buffer, 50 mM Sodium Acetate Buffer pH 4.5, 24 Hours
  solubility at 24 h: 300 µg/mL (≈ 549 µM)
[4]; Fasted State Simulated Intestinal Fluid (FaSSIF), pH 6.5, fassif, FaSSIF pH 6.5, 1 Hour
  solubility at 1 h: 5080 µg/mL (≈ 9290 µM)
[4]; Fasted State Simulated Intestinal Fluid (FaSSIF), pH 6.5, fassif, FaSSIF pH 6.5, 4 Hours
  solubility at 4 h: 5110 µg/mL (≈ 9350 µM)
[4]; Fasted State Simulated Intestinal Fluid (FaSSIF), pH 6.5, fassif, FaSSIF pH 6.5, 24 Hours
  solubility at 24 h: 5310 µg/mL (≈ 9710 µM)
[4]; Simulated Gastric Fluid (SGF), pH 1.6, simulated gastric fluid, SGF pH 1.6, 1 Hour
  solubility at 1 h: 7200 µg/mL (≈ 13200 µM)
[4]; Simulated Gastric Fluid (SGF), pH 1.6, simulated gastric fluid, SGF pH 1.6, 4 Hours
  solubility at 4 h: 7390 µg/mL (≈ 13500 µM)
[4]; Simulated Gastric Fluid (SGF), pH 1.6, simulated gastric fluid, SGF pH 1.6, 24 Hours
  solubility at 24 h: 7910 µg/mL (≈ 14500 µM)
[4]; Simulated Gastric Fluid (SGF), pH 2, simulated gastric fluid, SGF pH 2.0, 1 Hour
  solubility at 1 h: 1490 µg/mL (≈ 2730 µM)
[4]; Simulated Gastric Fluid (SGF), pH 2, simulated gastric fluid, SGF pH 2.0, 4 Hours
  solubility at 4 h: 1530 µg/mL (≈ 2800 µM)
[4]; Simulated Gastric Fluid (SGF), pH 2, simulated gastric fluid, SGF pH 2.0, 24 Hours
  solubility at 24 h: 1620 µg/mL (≈ 2960 µM)
[4]; Simulated Gastric Fluid (SGF), pH 4, simulated gastric fluid, SGF pH 4.0, 1 Hour
  solubility at 1 h: 150 µg/mL (≈ 274 µM)
[4]; Simulated Gastric Fluid (SGF), pH 4, simulated gastric fluid, SGF pH 4.0, 4 Hours
  solubility at 4 h: 150 µg/mL (≈ 274 µM)
[4]; Simulated Gastric Fluid (SGF), pH 4, simulated gastric fluid, SGF pH 4.0, 24 Hours
  solubility at 24 h: 160 µg/mL (≈ 293 µM)
[4]; all investigated physiologically relevant pH values (1.6 to 6.5)
  solubility comparison of the forms: Forms I and III have very similar solubilities at all investigated physiologically
[5]
  relative stability of the form: most stable form
